Measured values: US20230372318A1, “METHODS FOR TREATING A SUBJECT HAVING MULTIPLE SYSTEM ATROPHY” (Theravance Biopharma R&D IP, LLC, priority 2022, published 2023)

Columns and labels:
[1] = test system: heart rate (HR) and mean arterial pressure (MAP); assay: Cardiovascular model in anesthetized rat: intrinsic effect on MAP and HR; format: in vivo; details: anesthetized rats
Procedure: These studies were conducted to assess the effect of a single administration of ampreloxetine on heart rate (HR) and mean arterial pressure (MAP) in anesthetized rats. Using this cardiovascular model, the intrinsic effect on HR and the inhibition of tyramine pressor response were evaluated as surrogate measures that reflect the ability of ampreloxetine to inhibit norepinephrine transporters in the periphery.
Normotensive male Sprague-Dawley rats weighing between 250-350 g were anesthetized with an intraperitoneal injection (IP) of thiobutabarbital (Inactin). All animals were kept under complete anesthesia (i.e., absence of response to toe pinch test) for the surgery and for the duration of the study. The right common carotid artery and jugular vein were isolated and catheterized. The trachea was intubated to keep the airway open during the study. After completion of surgery, the arterial catheter was connected to a pressure transducer and baseline blood pressure [Systolic (SBP), Mean Arterial (MAP) and Diastolic (DBP)] and heart rate (HR) were recorded using the Notocord-HEM data acquisition system. Following at least 60 min of baseline (i.e., the last 10 min was stable), vehicle (10% Tween20, 2 mL/kg, IP) was administered and any potential effect was monitored for at least 10 min. After this period, rats were injected with either vehicle or ampreloxetine ([…], 2 mL/kg, IP) and changes in MAP and HR were monitored for 25 min. Rats were then challenged intravenously via the jugular vein catheter, with non-cumulative bolus doses of tyramine (0.03, 0.1, 0.3, and 1 mg/kg, 1 mL/kg, IV) given at 5 min intervals. After the last dose of tyramine, data acquisition continued for another 10 min before the experiment was terminated. In a separate group of animals, blood was collected to assess the concentration of ampreloxetine in plasma at 15 min and 60 min after dosing. Free plasma concentrations obtained from 15 min were used to construct the concentration response curve (CRC) to MAP and HR while concentrations from 60 min were used for the tyramine CRC. Animals were euthanized by carbon dioxide asphyxiation followed by thoracotomy.
Intrinsic hemodynamic effects were reported as the maximum change in MAP or HR induced by ampreloxetine before tyramine challenge. Inhibition of tyramine effect was normalized to the response to 1 mg/kg dose of tyramine in the vehicle control group. Concentration response curves (CRCs) of the change in MAP, HR and inhibition of tyramine response were analyzed through iterative curve fitting to a logistic equation using Prism 5.00™ (GraphPad, Inc.). The equation used was as follows:
Y=(Bottom+Top−Bottom)/(1+10^((Log EC50−X)*HillSlope)) […]

[2] = test system: subjects with attention-deficit hyperactivity disorder and fibromyalgia; details: 5 mg or 20 mg once per day for 6 weeks; cited from earlier work

## Fc1cc(F)c(OCc2ccccc2C2CCNCC2)c(F)c1 [Ampreloxetine, 4-[2-(2,4,6-trifluorophenoxymethyl)phenyl]piperidine]
[1]; 0.01-30 mg/kg IP
  Effect on MAP and HR: dose dependently increased MAP and HR
  Maximum change in HR: 28.1 (22.4-33.7) bpm
  Maximum change in MAP: 13.2 (4.4-22.1) mm Hg
[1]; IP, free plasma concentration at 15 min
  HR potency (HR EC25), free plasma concentration giving 25 bpm change in HR: 8.6 nM
[2]
  Safety and tolerability: generally well tolerated with no clinically significant safety signals
